In patent US20250011307A1, “CRYSTALLINE FORMS OF BIARYL YAP/TAZ-TEAD PROTEIN-PROTEIN INTERACTION INHIBITORS” (Novartis AG, priority 2021, published 2025):

What was measured:
Format in all cases: physicochemical
[1] = Solid state bulk stability stress test (HPLC degradation products, color, XRPD); design: key to CL color: A: No change; B: Slight discoloration; C: Medium discoloration; D: Strong discoloration; conditions: Compound A forms
[2] = Excipient compatibility stress test (HPLC degradation products, color); design: key to CL color: A: No change; B: Slight discoloration; C: Medium discoloration; D: Strong discoloration; conditions: Compound A forms
[3] = Solubility after equilibration at 25° C. for 24 h, with final pH and XRPD of solid residues; conditions: Compound A forms
[4] = Hygroscopicity (loss on drying by TGA and XRPD, as is and after storage at 92% / 80% RH); conditions: Compound A forms; for Loss on drying by TGA [%]: TGA temperature per cell: Modification A 110° C., amorphous 119° C., 4-hydroxybenzoate 200° C.
[5] = Xenon light stress test of bulk (HPLC degradation products, color, XRPD); design: key to CL color: A: No change; B: Slight discoloration; C: Medium discoloration; D: Strong discoloration; conditions: Compound A forms, Xenon light (1200 kLuxh, 25° C.)
Description: (§1) X-ray powder diffraction (XRPD) patterns were obtained using a Bruker Advance D8 in reflection geometry. Powders were analyzed using a zero background Si flat sample holder. The radiation used was Cu Kα (A=1.5418 Å). Patterns were measured between 2° and 40° 2theta. • Sample amount: 5-10 mg • Sample holder: zero background Si flat sample holder
as §1, with “radiation” for “radiation used”, “(λ=1.5418” for “(A=1.5418”

[6] = 2 weeks 50° C./75% RH, 1% in mixture 1
[7] = 2 weeks 50° C./75% RH, 1% in mixture 2
[8] = 2 weeks 50° C./75% RH, 1% in mixture 3
[9] = 2 weeks 50° C./75% RH, HGC capsule powder
[10] = 2 weeks 50° C./75% RH, HPMC capsule powder
[11] = 2 weeks 70° C./11% RH, 1% in mixture 1
[12] = 2 weeks 70° C./11% RH, 1% in mixture 2
[13] = 2 weeks 70° C./11% RH, 1% in mixture 3
[14] = 2 weeks 70° C./11% RH, HGC capsule powder
[15] = 2 weeks 70° C./11% RH, HPMC capsule powder
[16] = 2 weeks 70° C./75% RH, 1% in mixture 1
[17] = 2 weeks 70° C./75% RH, 1% in mixture 2
[18] = 2 weeks 70° C./75% RH, 1% in mixture 3
[19] = 2 weeks 70° C./75% RH, HPC capsule powder
[20] = 2 weeks 70° C./75% RH, HPMC capsule powder
[21] = FaSSIF V2 pH 6.5, target concentration 20 mg/10 mL
[22] = FeSSIF V2 pH 5.8, target concentration 20 mg/10 mL
[23] = SGF pH 2.0, target concentration 20 mg/10 mL
[24] = Water, target concentration 20 mg/10 mL
[25] = pH 1.2, 100 mM HCl, target concentration 20 mg/10 mL
[26] = pH 3.0, 50 mM citrate buffer, target concentration 20 mg/10 mL
[27] = pH 4.7, 50 mM acetate buffer, target concentration 20 mg/10 mL
[28] = pH 6.8, 50 mM phosphate buffer with 50 mM Na taurocholate
[29] = pH 6.8, 50 mM phosphate buffer with 50 mM Na taurocholate, target concentration 20 mg/10 mL
[30] = pH 6.8, 50 mM phosphate buffer, target concentration 20 mg/10 mL
[31] = Hygroscopicity, before RH storage

CNC(=O)c1cnc(OCCO)c(F)c1-c1c(Cl)c(F)cc2c1C[C@](c1ccccc1)([C@@H]1CCCN1)O2 [Compound A Free form Modification A, 4-((2S,4S)-5-Chloro-6-fluoro-2-phenyl-2-((S)-pyrrolidin-2-yl)-2,3-dihydrobenzofuran-4-yl)-5-fluoro-6-(2-hydroxyethoxy)-N-methylnicotinamide]
Bulk (XRPD) ([1]; 2 weeks 50° C./75% RH): No change | CL color ([1]; 2 weeks 50° C./75% RH): A | DP[%] degradation products, Bulk (HPLC) ([1]; 2 weeks 50° C./75% RH): 1.3% | Bulk (XRPD) ([1]; 2 weeks 80° C., 11% RH): No change | CL color ([1]; 2 weeks 80° C., 11% RH): A | DP[%] degradation products, Bulk (HPLC) ([1]; 2 weeks 80° C., 11% RH): 1.4% | Bulk (XRPD) ([1]; 2 weeks 80° C./75% RH): gel | DP[%] degradation products, Bulk (HPLC) ([1]; 2 weeks 80° C./75% RH): 12.6% | CL color [2, 6]: A | DP[%] degradation products [2, 6]: 1.4% | CL color [2, 7]: A | DP[%] degradation products [2, 7]: 2.5% | CL color [2, 8]: A | DP[%] degradation products [2, 8]: 1.4% | CL color [2, 9]: A | DP[%] degradation products [2, 9]: 1.2% | CL color [2, 10]: A | DP[%] degradation products [2, 10]: 1.7% | CL color [2, 11]: A | DP[%] degradation products [2, 11]: 1.3% | CL color [2, 12]: A | DP[%] degradation products [2, 12]: 1.2% | CL color [2, 13]: A | DP[%] degradation products [2, 13]: 1.1% | CL color [2, 14]: A | DP[%] degradation products [2, 14]: 1.2% | CL color [2, 15]: A | DP[%] degradation products [2, 15]: 1.5% | CL color [2, 16]: gel | DP[%] degradation products [2, 16]: 6.1% | CL color [2, 17]: gel | DP[%] degradation products [2, 17]: 7.8% | CL color [2, 18]: gel | DP[%] degradation products [2, 18]: 11.8% | CL color [2, 19]: gel | DP[%] degradation products [2, 19]: 3.3% | CL color [2, 20]: gel | DP[%] degradation products [2, 20]: 6.6% | final pH ([3]; FaSSIF V2 pH 6.5): (8.07) | Sol. (solubility) [3, 21]: ~2, mg/mL | final pH ([3]; FeSSIF V2 pH 5.8): (5.98) | Sol. (solubility) [3, 22]: >2, mg/mL | final pH ([3]; SGF pH 2.0): (2.39) | Sol. (solubility) [3, 23]: >2, mg/mL | final pH ([3]; Water): (9.12) | Sol. (solubility) [3, 24]: 0.27, mg/mL | final pH ([3]; pH 1.2, 100 mM HCl): (1.16) | Sol. (solubility) [3, 25]: >2, mg/mL | final pH ([3]; pH 3.0, 50 mM citrate buffer): (3.10) | Sol. (solubility) [3, 26]: >2, mg/mL | final pH ([3]; pH 4.7, 50 mM acetate buffer): (4.86) | Sol. (solubility) [3, 27]: >2, mg/mL | final pH ([3]; pH 6.8, 50 mM phosphate buffer): (6.95) | final pH [3, 28]: (6.91) | Sol. (solubility) [3, 29]: >2, mg/mL | Sol. (solubility) [3, 30]: >2, mg/mL | XRPD ([4]; After 1 day at 80% RH): No change | Loss on drying by TGA [%] ([4]; After 1 day at 80% RH): 0.7% (110° C.) | XRPD ([4]; After 1 day at 92% RH): No change | Loss on drying by TGA [%] ([4]; After 1 day at 92% RH): 1.0% (110° C.) | Loss on drying by TGA [%] [4, 31]: 0.4% (110° C.) | Bulk amber vial (XRPD) ([5]; amber vial): No change | CL color ([5]; amber vial): A | DP[%] degradation products, Bulk amber vial (HPLC) ([5]; amber vial): 1.0% | Bulk clear vial (XPRD) ([5]; clear vial): No change | CL color ([5]; clear vial): B | DP[%] degradation products, Bulk clear vial (HPLC) ([5]; clear vial): 4.1%

CNC(=O)c1cnc(OCCO)c(F)c1-c1c(Cl)c(F)cc2c1C[C@](c1ccccc1)([C@@H]1CCCN1)O2 [Compound A Free form amorphous, 4-((2S,4S)-5-Chloro-6-fluoro-2-phenyl-2-((S)-pyrrolidin-2-yl)-2,3-dihydrobenzofuran-4-yl)-5-fluoro-6-(2-hydroxyethoxy)-N-methylnicotinamide]
Bulk (XRPD) ([1]; 2 weeks 50° C./75% RH): No change | CL color ([1]; 2 weeks 50° C./75% RH): A | DP[%] degradation products, Bulk (HPLC) ([1]; 2 weeks 50° C./75% RH): 2.1% | Bulk (XRPD) ([1]; 2 weeks 80° C., 11% RH): No change | CL color ([1]; 2 weeks 80° C., 11% RH): A | DP[%] degradation products, Bulk (HPLC) ([1]; 2 weeks 80° C., 11% RH): 5.5% | Bulk (XRPD) ([1]; 2 weeks 80° C./75% RH): gel | DP[%] degradation products, Bulk (HPLC) ([1]; 2 weeks 80° C./75% RH): 15.3% | final pH ([3]; FaSSIF V2 pH 6.5): (7.98) | Sol. (solubility) [3, 21]: >2, mg/mL | final pH ([3]; FeSSIF V2 pH 5.8): (5.93) | Sol. (solubility) [3, 22]: >2 mg/mL | final pH ([3]; SGF pH 2.0): (2.37) | Sol. (solubility) [3, 23]: >2, mg/mL | final pH ([3]; Water): (9.26) | Sol. (solubility) [3, 24]: 0.28, mg/mL | final pH ([3]; pH 1.2, 100 mM HCl): (1.19) | Sol. (solubility) [3, 25]: >2 mg/mL | final pH ([3]; pH 3.0, 50 mM citrate buffer): (3.13) | Sol. (solubility) [3, 26]: >2, mg/mL | final pH ([3]; pH 4.7, 50 mM acetate buffer): (4.89) | Sol. (solubility) [3, 27]: >2, mg/mL | final pH ([3]; pH 6.8, 50 mM phosphate buffer): (6.97) | final pH [3, 28]: (6.87) | Sol. (solubility) [3, 29]: >2, mg/mL | Sol. (solubility) [3, 30]: >2, mg/mL | XRPD ([4]; After 1 day at 80% RH): No change | Loss on drying by TGA [%] ([4]; After 1 day at 80% RH): 2.0% (119° C.) | XRPD ([4]; After 1 day at 92% RH): No change | Loss on drying by TGA [%] ([4]; After 1 day at 92% RH): 2.5% (119° C.) | Loss on drying by TGA [%] [4, 31]: 1.1% (119° C.) | Bulk amber vial (XRPD) ([5]; amber vial): No change | CL color ([5]; amber vial): A | DP[%] degradation products, Bulk amber vial (HPLC) ([5]; amber vial): 1.0% | Bulk clear vial (XPRD) ([5]; clear vial): No change | CL color ([5]; clear vial): B | DP[%] degradation products, Bulk clear vial (HPLC) ([5]; clear vial): 7.4%
